PMC12631002, “Bioactivity Profiles of Progressively Ring‐Fluorinated Cyclohexyl Motifs in the WKYMVm Peptide as Formylpeptide FPR2 Agonists and in Keto‐Piperazines as Antitrypanosome Agents” (Chembiochem, 2025)
Where two headings read alike, the source gives them in different places. Numbered stars: 1 amine (or outer) side, 2 acyl side, 3 side chain; on linkers, the order of the positions; unused ones are H or OH. Square brackets hold non-standard residues; d marks the D form. Ends that are not written are not given here. Peptide text beside a SMILES is read from it. X3 = O=C([C@H](C[C@@H]1[C@H](F)C[C@H](F)C[C@@H]1F)N[*:1])[*:2]; X2 = O=C([C@H](C[C@@H]1C[C@H](F)C[C@H](F)C1)N[*:1])[*:2]; X1 = O=C([C@H](C[C@H]1CC[C@@H](F)CC1)N[*:1])[*:2]; Phe(F5) = N[C@@H](Cc1c(F)c(F)c(F)c(F)c1F)C(=O)O; Phe(4-F) = N[C@@H](Cc1ccc(F)cc1)C(=O)O

Assays:
[1] = set-up: method as in PMID 29732086; details: ref 6a; cited from earlier work
Log P assessment (HPLC) = type: physicochemical
Description: (§1) Accordingly N‐Boc amino acid esters 20a–d were hydrolyzed to their free carboxylic acids 25a–d and then progressed in each case to the corresponding Weinreb–Nahm amides^[ [33] ^] 26a–d. N‐Boc deprotection followed by coupling to N‐Boc‐tryptophan generated dipeptides 27a–d as the required precursors for cyclization. The intramolecular Pictet–Spengler condensations, followed a previous protocol^[ [19] ^] and 4‐monofluoro 28a, 3,5‐difluoro‐ 28b, and 2,3,4,5,6‐pentafluoro‐ 28d keto‐piperazines could be prepared following this method. It is noteworthy that the pentafluoro‐ analog was accompanied by what appeared to be a high level of defluorinated side products, however 28d was conveniently purified by HPLC rather than column chromatography. […] Thus, 4‐monofluoro‐ 28a, 3,5‐difluoro‐ 28b, and 2,3,4,5,6‐pentafluoro‐ 28d cyclohexyl‐amino acid tryptophan diketopiperazines were prepared and explored in antitrypanosomal assays. Given the importance of molecular lipophilicity in the context of medicinal chemistry, a Log P assessment (HPLC) was made of the diketopiperazines products 28a, 28b, and 28d as illustrated in Table 1 . As anticipated, there is an increase in polarity (LogP reduction) as the number of fluorines increases. We also know from previous work[[6b]] that the Ph ring is more polar than cyclohexane but less polar than the progressively fluorinated cyclohexane rings. The keto‐piperazines 28a, 28b, and 28d were assayed^[ [20] ^] against growing cells of T. brucei and T. cruzi, as well as the human cell line, HeLa and the data is presented in Table 1.

T. brucei [2] = assay: Trypanocidal activity against growing cells; type: cell-based, Trypanosoma brucei; details: for EC50: Trypanosoma brucei; for trypanocidal activity against T. brucei: comparison within series and with 29
Description: as §1
Bioactivities assays of Janus face Tryptophan
Parasites were grown in different medium (e.g. T. brucei was grown in HMI-11 medium) with 10% heat-inactivated foetal bovine serum. parasites were counted using CASY TT Cell Counter. Fluorescence was recorded using a FLx 800 plate reader (BioTek) with an excitation wavelength 530–535 nm and emission wavelength of 590–610 nm using Gen5 Reader Control 2.0 Software (BioTek). EC50 values were determined using a 4-parameter non-linear logistic regression equation using GraFit 5.0 (Erithacus Software). SD values were calculated based on curve fitting to n biological replicates performed in parallel.

FPR2 [3] = target: T1, FPR2 (Homo sapiens, UniProt P25090); assay: Competition binding against K(5/6-FAM)-WKYMVm, flow cytometry; set-up: FLAG (N); expressed in transfected cells; details: for IC50: binding affinity (order of magnitude), order of magnitude
T1 sequence (P25090 1-351): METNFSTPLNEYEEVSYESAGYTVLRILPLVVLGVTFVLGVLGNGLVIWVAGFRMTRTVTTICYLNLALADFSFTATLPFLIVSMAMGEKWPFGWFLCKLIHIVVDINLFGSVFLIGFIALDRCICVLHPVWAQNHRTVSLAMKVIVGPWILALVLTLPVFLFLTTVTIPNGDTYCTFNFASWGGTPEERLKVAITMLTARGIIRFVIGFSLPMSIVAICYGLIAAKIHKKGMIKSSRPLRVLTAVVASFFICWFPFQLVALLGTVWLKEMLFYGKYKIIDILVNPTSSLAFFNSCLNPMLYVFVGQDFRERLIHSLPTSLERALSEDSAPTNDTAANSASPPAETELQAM
Protocol: Subsequently, mean fluorescence was measured using flow cytometry (Attune NxT). Data was expressed as a percentage of the maximum binding (i.e., no competitor) and errors were determined as a result of three independent experiments performed in duplicate (Figure 5 ).
Cell Culture and Transfection: Constructs were either transiently or stably expressed in native Human Embryonic Kidney 293 (HEK293) cells and maintained in DMEM containing 10% FCS. Transfections were performed using PEI at a ratio of DNA:PEI of 1:4 for all studies. […]
Competition Binding: Competition binding was performed using a fluorescently labelling ligand using an assay analogous to the classical radiolabelled method.[1] Briefly, human embryonic kidney 293 (HEK293) cells stably expressing human Formyl […]
and incubated for 90 min on ice in the dark to allow equilibrium binding. Subsequently, mean fluorescence was measured by flow cytometry using the Attune NxT. Data was expressed as a percentage of maximum binding (i.e. no competitor) and analysed via nonlinear regression one site model of equilibrium. IC50 values were determined using GraphPad PRISM software.

FPR2 [4] = target: T2, FPR2 (Homo sapiens, UniProt P25090); assay: BRET analysis of β-arrestin 2 recruitment; type: cell-based; details: HEK293, FPR2-Rluc8 + β-arrestin 2-YFP, 37 °C
T2 construct: expressed in transfected cells; host or cells: HEK293, transient transfection
Protocol: (§2) Since these modifications of WKYMVm altered the relative affinity of the compounds to bind to FPR2, a further series of bioluminescence resonance energy transfer (BRET) assays were conducted to determine if there was any change in efficacy, specifically the ability to recruit molecular effectors such as G‐protein or β‐arrestin.^[ [28], [29] ^] Briefly, HEK293 cells were transiently transfected with FPR2‐Rluc8 (donor) in combination with and either mGsi‐Venus or β‐arrestin 2‐YFP (acceptors) and replated after 24 h into white opaque 96‐well plates. Cells were assayed 24 h later at 37 °C, in HEPES‐buffered saline solution (HBSS) with coelenterazine H (5 μM). Cells were then stimulated with increasing concentrations of WKYMVm or analogs. Luminescence and fluorescence values were measured at 460/30 nm (FPR2) and […] (mini‐Gsi or β‐arrestin protein), respectively, and the acceptor: donor ratio was determined, normalized by subtraction of the ratio observed in untreated cells (Figure 7 ). […]
(§3) BRET analysis of β-Arrestin and mini-Gsi recruitment: HEK293 cells were grown on 6 well plates until 90-95% confluency was reached. […] Cells were then stimulated with increasing concentrations of WKYMVm and analysed using ClarioStar Plus plate reader (BMG Labtech) at 10 minutes post agonist addition. […]
T2 sequence (P32121 whole entry partner, one chain of several): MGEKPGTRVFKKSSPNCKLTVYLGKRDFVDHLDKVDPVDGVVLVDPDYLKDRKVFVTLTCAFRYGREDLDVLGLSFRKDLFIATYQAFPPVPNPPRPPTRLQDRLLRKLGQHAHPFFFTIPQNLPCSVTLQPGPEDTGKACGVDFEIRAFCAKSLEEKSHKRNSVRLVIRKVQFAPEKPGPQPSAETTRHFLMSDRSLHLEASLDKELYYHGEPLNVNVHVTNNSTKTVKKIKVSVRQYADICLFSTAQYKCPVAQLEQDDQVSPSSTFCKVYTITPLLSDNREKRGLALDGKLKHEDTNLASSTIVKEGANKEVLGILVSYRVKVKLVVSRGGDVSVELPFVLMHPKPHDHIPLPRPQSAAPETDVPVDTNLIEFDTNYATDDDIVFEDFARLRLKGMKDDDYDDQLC

FPR2 [5] = target: T1, FPR2; assay: BRET analysis of mini-Gsi recruitment; type: cell-based; set-up: expressed in transfected cells; host or cells: HEK293, transient transfection; details: HEK293, FPR2-Rluc8 + mGsi-Venus, 37 °C
Protocol: as §2, §3

T. brucei [6] = system: T. brucei; set-up: method as in PMID 34927802; details: previously reported; cited from earlier work
HeLa = assay: Mammalian cell activity; type: cell-based; details: Homo sapiens
Protocol: Bioactivities assays of Janus face Tryptophan […]
Fluorescence was recorded using a FLx
800 plate reader (BioTek) with an excitation wavelength 530–535 nm and emission wavelength of 590–610 nm using Gen5 Reader Control 2.0 Software (BioTek). EC50 values were determined using a 4-parameter non-linear logistic regression equation using GraFit 5.0 (Erithacus Software). SD values were calculated based on curve fitting to n biological replicates performed in parallel.

[7] = target: T3, formyl-peptide receptor type 2 (FPR2), on HEK293 cells (human, UniProt P25090 1-351); assay: FACS; competition with K(5/6-FAM)-WKYMVm; printed as Log IC50 -7.24
T3 chain: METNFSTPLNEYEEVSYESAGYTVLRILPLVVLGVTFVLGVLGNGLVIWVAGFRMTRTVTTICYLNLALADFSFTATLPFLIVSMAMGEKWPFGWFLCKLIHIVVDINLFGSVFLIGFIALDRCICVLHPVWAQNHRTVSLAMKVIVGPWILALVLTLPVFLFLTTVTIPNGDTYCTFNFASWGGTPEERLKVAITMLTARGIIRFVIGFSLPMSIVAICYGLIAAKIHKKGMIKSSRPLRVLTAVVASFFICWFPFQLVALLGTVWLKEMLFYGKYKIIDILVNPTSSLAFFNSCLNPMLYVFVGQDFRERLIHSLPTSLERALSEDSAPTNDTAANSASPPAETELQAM

[8] = target: T3, formyl-peptide receptor type 2 (FPR2), …; assay: FACS; competition with K(5/6-FAM)-WKYMVm; printed as Log IC50 -5.33
[9] = target: T3, formyl-peptide receptor type 2 (FPR2), …; assay: FACS; competition with K(5/6-FAM)-WKYMVm; printed as Log IC50 -5.80
[10] = target: T3, formyl-peptide receptor type 2 (FPR2), …; assay: FACS; competition with K(5/6-FAM)-WKYMVm; printed as Log IC50 -6.29

Molecule: COC(=O)C=CC(CC1CCNC1=O)NC(=O)C(CC1C(F)C(F)C(F)C(F)C1F)NC(=O)C=Cc1ccccc1 (stereo not shown) [compound 9]
- Log P [1]: 1.21

Molecule: O=C1NC(CC2CC(F)CC(F)C2)C2NC1Cc1c2[nH]c2ccccc12 (stereo not shown) [28b]
- chromatographic logP (Log P assessment (HPLC)): 2.92
- EC50 (T. brucei [2]): 11300 ± 730 nM

Molecule: O=CC(CC1CCNC1=O)NC(=O)C(CC1C(F)C(F)C(F)C(F)C1F)NC(=O)c1cc2ccccc2[nH]1 (stereo not shown) [compound 8]
- Log P [1]: 0.69

Molecule: CSCC[C@H](NC(=O)[C@H](C[C@@H]1C[C@H](F)C[C@H](F)C1)NC(=O)[C@H](CCCCN)NC(=O)[C@@H](N)Cc1c[nH]c2ccccc12)C(=O)N[C@H](C(=O)N[C@H](CCSC)C(N)=O)C(C)C [23b] (H-WK[X2]MV[dM]-NH2)
- IC50 (FPR2 [3]): ~100 nM

Molecule: CSCC[C@H](NC(=O)[C@H](Cc1ccc(O)cc1)NC(=O)[C@H](CCCCN)NC(=O)[C@@H](N)Cc1c[nH]c2ccccc12)C(=O)N[C@H](C(=O)N[C@H](CCSC)C(N)=O)C(C)C [compound 13, Trp‐Lys‐Tyr‐Met‐Val‐D‐Met‐NH2, reference compound]
- efficacy of β-arrestin recruitment (FPR2 [4]): most efficacious
- efficacy of Gi (mini-Gsi) recruitment (FPR2 [5]): most efficacious

Molecule: O=C1NC(Cc2ccccc2)C2NC1Cc1c2[nH]c2ccccc12 (stereo not shown) [compound 29]
- EC50 (T. brucei [6]): 52100 ± 3500 nM

Molecule: O=C1NC(CC2CCC(F)CC2)C2NC1Cc1c2[nH]c2ccccc12 (stereo not shown) [28a]
- chromatographic logP (Log P assessment (HPLC)): 3.02
- EC50 (HeLa): 105000 ± 6250 nM
- EC50 (T. brucei [2]): 10700 ± 460 nM
- trypanocidal activity against T. brucei (T. brucei [2]): best compound

Molecule: CSCC[C@H](NC(=O)[C@H](Cc1ccc(F)cc1)NC(=O)[C@H](CCCCN)NC(=O)[C@@H](N)Cc1c[nH]c2ccccc12)C(=O)N[C@H](C(=O)N[C@H](CCSC)C(N)=O)C(C)C [compound 24] (H-WK[Phe(4-F)]MV[dM]-NH2)
- IC50 (FPR2 [3]): ~100 nM

Molecule: CSCC[C@H](NC(=O)[C@H](C[C@@H]1[C@H](F)C[C@H](F)C[C@@H]1F)NC(=O)[C@H](CCCCN)NC(=O)[C@@H](N)Cc1c[nH]c2ccccc12)C(=O)N[C@H](C(=O)N[C@H](CCSC)C(N)=O)C(C)C [23c] (H-WK[X3]MV[dM]-NH2)
- IC50 (FPR2 [3]): ~1000 nM

Molecule: O=C1NC(CC2C(F)C(F)C(F)C(F)C2F)C2NC1Cc1c2[nH]c2ccccc12 (stereo not shown) [28d]
- chromatographic logP (Log P assessment (HPLC)): 2.58
- EC50 (T. brucei [2]): 22000 ± 2120 nM
- trypanocidal activity against T. brucei (T. brucei [2]): least active compound

Molecule: CSCC[C@H](NC(=O)[C@H](C[C@H]1CC[C@@H](F)CC1)NC(=O)[C@H](CCCCN)NC(=O)[C@@H](N)Cc1c[nH]c2ccccc12)C(=O)N[C@H](C(=O)N[C@H](CCSC)C(N)=O)C(C)C [23a] (H-WK[X1]MV[dM]-NH2; N-terminus assumed)
- efficacy of β-arrestin recruitment (FPR2 [4]): comparable efficacy
- efficacy of Gi (mini-Gsi) recruitment (FPR2 [5]): comparable efficacy
- relative binding affinity (FPR2 [3]; comparison within the peptide series): highest affinity but significantly weaker than that of the WKYMVm 13

Molecule: CSCC[C@H](NC(=O)[C@H](Cc1c(F)c(F)c(F)c(F)c1F)NC(=O)[C@H](CCCCN)NC(=O)[C@@H](N)Cc1c[nH]c2ccccc12)C(=O)N[C@H](C(=O)N[C@H](CCSC)C(N)=O)C(C)C [compound 25] (H-WK[Phe(F5)]MV[dM]-NH2)
- IC50 (FPR2 [3]): ~1000 nM

B1: W-peptide analog 24 (4-fluorophenylalanine in place of Tyr3 of WKYMVm) (peptide)
peptide: WK[Phe(4-F)]MV[dM]-NH2
modifications: N-terminus assumed
SMILES: CSCC[C@H](NC(=O)[C@H](Cc1ccc(F)cc1)NC(=O)[C@H](CCCCN)NC(=O)[C@@H](N)Cc1c[nH]c2ccccc12)C(=O)N[C@H](C(=O)N[C@H](CCSC)C(N)=O)C(C)C
notes: last residue D-methionine; also called 4-fluorophenyl-modified peptide 24; 4-fluorophenylalanine analog 24; source: synthetic peptide (microwave-assisted SPPS, preparative HPLC)
- IC50 [7]: 57.5 nM

B2: W-peptide analog 23d (all-cis pentafluorocyclohexylalanine in place of Tyr3 of WKYMVm) (peptide)
chain: WK[all‑cis pentafluorocyclohexylalanine]MV[dM]-NH2
- IC50 [8]: 4680 nM

B3: W-peptide analog 23c (all-cis trifluorocyclohexylalanine in place of Tyr3 of WKYMVm) (peptide)
chain: WK[all‑cis trifluorocyclohexylalanine]MV[dM]-NH2
- IC50 [9]: 1580 nM

B4: W-peptide analog 25 (pentafluoroaryl phenylalanine in place of Tyr3 of WKYMVm) (peptide)
peptide: WK[Phe(F5)]MV[dM]-NH2
modifications: N-terminus assumed
SMILES: CSCC[C@H](NC(=O)[C@H](Cc1c(F)c(F)c(F)c(F)c1F)NC(=O)[C@H](CCCCN)NC(=O)[C@@H](N)Cc1c[nH]c2ccccc12)C(=O)N[C@H](C(=O)N[C@H](CCSC)C(N)=O)C(C)C
notes: last residue D-methionine; also called pentafluoroaryl motif; source: synthetic peptide (microwave-assisted SPPS, preparative HPLC)
- IC50 [10]: 513 nM
